“And” between values parts separate entries of the source, which are not always exact repeats. Equal values may be shown once.
Assays:
[1] = biological target: T1, Adenosine receptor A1 (Homo sapiens, UniProt P30542)
T1 sequence (P30542 whole entry): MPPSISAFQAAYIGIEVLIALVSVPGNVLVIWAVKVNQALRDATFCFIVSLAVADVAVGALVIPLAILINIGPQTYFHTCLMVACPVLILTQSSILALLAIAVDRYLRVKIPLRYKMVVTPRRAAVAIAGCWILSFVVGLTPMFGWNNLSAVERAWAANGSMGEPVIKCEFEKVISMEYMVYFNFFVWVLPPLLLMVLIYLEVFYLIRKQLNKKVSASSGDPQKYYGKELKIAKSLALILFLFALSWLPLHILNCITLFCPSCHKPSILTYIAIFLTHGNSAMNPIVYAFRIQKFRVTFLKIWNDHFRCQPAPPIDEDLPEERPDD

[2] = biological target: Adenosine receptor A2a (Homo sapiens, UniProt P29274)
[3] = biological target: T2, Alpha-1A adrenergic receptor (Homo sapiens, UniProt P35348)
T2 sequence (P35348 whole entry): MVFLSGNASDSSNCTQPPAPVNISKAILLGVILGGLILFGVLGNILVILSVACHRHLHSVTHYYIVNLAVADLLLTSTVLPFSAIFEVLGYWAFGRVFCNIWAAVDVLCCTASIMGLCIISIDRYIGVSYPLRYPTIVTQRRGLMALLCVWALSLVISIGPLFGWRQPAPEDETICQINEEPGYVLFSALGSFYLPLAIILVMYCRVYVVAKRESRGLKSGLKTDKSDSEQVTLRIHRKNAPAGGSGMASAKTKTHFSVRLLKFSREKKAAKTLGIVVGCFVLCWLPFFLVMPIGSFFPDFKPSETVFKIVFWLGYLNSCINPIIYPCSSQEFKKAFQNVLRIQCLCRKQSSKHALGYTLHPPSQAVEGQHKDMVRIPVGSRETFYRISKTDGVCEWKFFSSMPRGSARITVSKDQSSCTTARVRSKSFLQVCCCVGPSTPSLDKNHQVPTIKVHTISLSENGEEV

[4] = biological target: T3, Alpha-2A adrenergic receptor (Homo sapiens, UniProt P08913); type: functional, cell-based
T3 sequence (P08913 whole entry): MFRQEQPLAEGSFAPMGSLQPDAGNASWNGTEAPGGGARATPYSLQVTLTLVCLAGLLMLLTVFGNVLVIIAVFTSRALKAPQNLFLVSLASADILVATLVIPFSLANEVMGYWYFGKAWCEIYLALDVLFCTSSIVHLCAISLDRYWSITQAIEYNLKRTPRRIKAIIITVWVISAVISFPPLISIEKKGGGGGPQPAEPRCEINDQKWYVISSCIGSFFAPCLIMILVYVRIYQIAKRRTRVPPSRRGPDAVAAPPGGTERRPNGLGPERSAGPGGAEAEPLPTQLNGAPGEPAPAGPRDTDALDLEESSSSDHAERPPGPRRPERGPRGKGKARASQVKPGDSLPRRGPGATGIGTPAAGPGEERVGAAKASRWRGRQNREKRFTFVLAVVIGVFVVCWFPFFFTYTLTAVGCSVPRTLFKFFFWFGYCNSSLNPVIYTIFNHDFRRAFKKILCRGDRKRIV

[5] = biological target: T4, Alpha-2B adrenergic receptor (Homo sapiens, UniProt P18089)
T4 sequence (P18089 whole entry): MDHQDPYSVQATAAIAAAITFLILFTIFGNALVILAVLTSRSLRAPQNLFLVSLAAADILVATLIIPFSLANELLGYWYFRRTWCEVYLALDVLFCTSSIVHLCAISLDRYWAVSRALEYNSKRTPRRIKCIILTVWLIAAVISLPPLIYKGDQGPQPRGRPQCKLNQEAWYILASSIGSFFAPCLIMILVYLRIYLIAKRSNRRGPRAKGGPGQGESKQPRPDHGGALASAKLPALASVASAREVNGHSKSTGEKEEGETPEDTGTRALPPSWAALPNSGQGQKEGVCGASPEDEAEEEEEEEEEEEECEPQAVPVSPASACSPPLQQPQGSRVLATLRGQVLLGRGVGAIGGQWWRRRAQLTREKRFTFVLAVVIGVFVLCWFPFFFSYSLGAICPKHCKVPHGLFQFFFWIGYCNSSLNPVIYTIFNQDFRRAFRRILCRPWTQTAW

[6] = biological target: Beta-1 adrenergic receptor (Homo sapiens, UniProt P08588); type: functional
[7] = biological target: Beta-2 adrenergic receptor (Homo sapiens, UniProt P07550); type: functional, cell-based
[8] = biological target: T5, Cholecystokinin receptor type A (Homo sapiens, UniProt P32238)
T5 sequence (P32238 whole entry): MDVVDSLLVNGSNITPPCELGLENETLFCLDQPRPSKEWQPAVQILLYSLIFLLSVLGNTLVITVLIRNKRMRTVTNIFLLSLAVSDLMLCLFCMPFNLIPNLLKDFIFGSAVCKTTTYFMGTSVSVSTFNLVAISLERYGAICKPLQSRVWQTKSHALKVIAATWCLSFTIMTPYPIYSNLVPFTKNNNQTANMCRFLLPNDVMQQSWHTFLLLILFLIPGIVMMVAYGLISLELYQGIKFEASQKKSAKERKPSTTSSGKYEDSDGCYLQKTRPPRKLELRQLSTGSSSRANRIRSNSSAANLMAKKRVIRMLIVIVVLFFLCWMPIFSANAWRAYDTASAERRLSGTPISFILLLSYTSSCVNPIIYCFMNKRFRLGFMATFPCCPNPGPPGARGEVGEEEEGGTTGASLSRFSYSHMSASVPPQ

[9] = biological target: Growth hormone secretagogue receptor type 1 (Homo sapiens, UniProt Q92847)
[10] = biological target: Glutamate receptor ionotropic, NMDA 1 (Rattus norvegicus, UniProt P35439)
[11] = biological target: 3',5'-cyclic-AMP phosphodiesterase 4D (Homo sapiens, UniProt Q08499); type: functional
[12] = biological target: T6, Thromboxane A2 receptor (Homo sapiens, UniProt P21731)
T6 sequence (P21731 whole entry): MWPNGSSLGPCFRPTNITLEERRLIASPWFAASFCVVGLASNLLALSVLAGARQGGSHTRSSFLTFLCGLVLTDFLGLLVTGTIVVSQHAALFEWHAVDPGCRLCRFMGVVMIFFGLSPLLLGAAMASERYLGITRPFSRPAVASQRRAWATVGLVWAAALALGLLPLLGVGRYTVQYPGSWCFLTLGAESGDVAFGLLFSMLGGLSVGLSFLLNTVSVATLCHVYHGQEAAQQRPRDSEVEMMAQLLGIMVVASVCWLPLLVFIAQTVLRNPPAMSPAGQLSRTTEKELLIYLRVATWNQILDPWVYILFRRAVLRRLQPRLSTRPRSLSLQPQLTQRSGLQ

[13] = biological target: Mu-type opioid receptor (Homo sapiens, UniProt P35372)
Also: assay procedure not described here.

Chain of Mu-type opioid receptor (P35372 whole entry): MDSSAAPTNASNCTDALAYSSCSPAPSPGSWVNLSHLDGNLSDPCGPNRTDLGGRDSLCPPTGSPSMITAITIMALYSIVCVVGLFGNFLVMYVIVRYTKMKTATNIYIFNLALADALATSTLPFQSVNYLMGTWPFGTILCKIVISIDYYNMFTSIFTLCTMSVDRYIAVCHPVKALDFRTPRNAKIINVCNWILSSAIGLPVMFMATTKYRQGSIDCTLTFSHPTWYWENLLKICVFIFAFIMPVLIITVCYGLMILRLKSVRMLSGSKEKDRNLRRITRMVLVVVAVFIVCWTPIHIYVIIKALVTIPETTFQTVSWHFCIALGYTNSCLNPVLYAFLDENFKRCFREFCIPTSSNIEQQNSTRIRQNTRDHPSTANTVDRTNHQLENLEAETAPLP
Chain of Beta-1 adrenergic receptor (P08588 whole entry): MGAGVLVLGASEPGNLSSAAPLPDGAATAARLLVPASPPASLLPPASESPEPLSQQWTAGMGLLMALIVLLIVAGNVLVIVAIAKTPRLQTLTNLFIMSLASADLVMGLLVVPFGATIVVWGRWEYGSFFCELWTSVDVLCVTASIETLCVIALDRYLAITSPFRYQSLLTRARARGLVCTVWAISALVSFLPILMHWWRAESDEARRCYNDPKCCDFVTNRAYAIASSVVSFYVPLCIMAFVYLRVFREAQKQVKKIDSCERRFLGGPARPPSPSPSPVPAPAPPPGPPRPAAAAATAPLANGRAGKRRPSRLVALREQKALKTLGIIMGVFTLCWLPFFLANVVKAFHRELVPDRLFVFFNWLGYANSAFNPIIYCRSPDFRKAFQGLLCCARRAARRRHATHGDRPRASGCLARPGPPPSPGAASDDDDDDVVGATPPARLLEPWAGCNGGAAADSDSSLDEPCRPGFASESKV
Chain of Adenosine receptor A2a (P29274 whole entry): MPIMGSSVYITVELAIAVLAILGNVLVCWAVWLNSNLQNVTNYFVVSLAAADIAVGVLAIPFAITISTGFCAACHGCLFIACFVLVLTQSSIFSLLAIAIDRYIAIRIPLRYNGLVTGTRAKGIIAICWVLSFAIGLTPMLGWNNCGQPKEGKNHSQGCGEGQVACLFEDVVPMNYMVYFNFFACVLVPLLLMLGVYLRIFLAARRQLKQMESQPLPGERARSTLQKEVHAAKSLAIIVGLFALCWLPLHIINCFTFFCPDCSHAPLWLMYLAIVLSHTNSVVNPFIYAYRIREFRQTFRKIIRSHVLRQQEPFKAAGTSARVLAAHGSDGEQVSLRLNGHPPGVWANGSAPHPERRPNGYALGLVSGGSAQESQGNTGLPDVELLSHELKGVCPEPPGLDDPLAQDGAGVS
Chain of Growth hormone secretagogue receptor type 1 (Q92847 whole entry): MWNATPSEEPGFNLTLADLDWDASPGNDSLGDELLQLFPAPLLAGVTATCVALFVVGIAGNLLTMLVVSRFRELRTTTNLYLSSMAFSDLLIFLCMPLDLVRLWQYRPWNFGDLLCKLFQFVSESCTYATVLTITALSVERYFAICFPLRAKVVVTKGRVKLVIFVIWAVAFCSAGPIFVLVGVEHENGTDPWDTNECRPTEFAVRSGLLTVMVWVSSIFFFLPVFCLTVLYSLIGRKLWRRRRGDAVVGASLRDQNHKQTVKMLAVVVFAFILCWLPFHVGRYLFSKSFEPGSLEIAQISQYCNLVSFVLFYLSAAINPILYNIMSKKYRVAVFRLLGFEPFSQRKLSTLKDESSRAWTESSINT
Chain of 3',5'-cyclic-AMP phosphodiesterase 4D (Q08499 whole entry): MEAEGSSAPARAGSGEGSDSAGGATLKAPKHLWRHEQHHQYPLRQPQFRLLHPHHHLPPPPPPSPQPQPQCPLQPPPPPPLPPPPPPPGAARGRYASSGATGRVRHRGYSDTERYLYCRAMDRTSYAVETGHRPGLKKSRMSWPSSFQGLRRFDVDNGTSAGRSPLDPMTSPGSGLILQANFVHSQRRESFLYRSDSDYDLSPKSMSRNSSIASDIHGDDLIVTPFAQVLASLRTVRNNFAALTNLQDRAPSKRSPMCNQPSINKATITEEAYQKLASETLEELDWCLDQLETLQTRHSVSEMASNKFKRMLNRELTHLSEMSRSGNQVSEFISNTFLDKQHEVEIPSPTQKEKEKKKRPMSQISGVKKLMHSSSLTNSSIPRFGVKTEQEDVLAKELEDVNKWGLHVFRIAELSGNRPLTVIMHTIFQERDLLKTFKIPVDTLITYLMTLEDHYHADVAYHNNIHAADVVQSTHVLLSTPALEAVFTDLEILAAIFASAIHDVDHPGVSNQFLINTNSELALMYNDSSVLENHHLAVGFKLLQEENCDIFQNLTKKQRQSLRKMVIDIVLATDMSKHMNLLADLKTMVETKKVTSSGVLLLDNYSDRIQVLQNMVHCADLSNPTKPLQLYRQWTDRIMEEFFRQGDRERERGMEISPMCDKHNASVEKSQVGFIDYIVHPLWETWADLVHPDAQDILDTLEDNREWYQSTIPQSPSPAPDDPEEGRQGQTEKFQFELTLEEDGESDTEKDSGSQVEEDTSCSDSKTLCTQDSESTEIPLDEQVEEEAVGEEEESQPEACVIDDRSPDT
Chain of Beta-2 adrenergic receptor (P07550 whole entry): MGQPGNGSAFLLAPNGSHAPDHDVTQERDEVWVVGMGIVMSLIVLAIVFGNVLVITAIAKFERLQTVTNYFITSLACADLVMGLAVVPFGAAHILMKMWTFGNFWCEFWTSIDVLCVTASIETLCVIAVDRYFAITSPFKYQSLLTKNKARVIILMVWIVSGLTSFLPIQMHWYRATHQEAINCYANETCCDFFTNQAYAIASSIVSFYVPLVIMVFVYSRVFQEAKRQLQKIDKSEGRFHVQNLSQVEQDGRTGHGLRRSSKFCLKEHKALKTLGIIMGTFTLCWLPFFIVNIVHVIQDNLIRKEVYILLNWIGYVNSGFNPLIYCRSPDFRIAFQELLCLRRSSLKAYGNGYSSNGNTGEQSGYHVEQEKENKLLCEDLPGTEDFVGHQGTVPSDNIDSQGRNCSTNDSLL

Compound	AC50 [1] [µM]	AC50 [2] [µM]	AC50 [3]	AC50 [4] [µM]	AC50 [5] [µM]	AC50 [6] [µM]	AC50 [7] [µM]	AC50 [8] [µM]	AC50 [9] [µM]	AC50 [10] [µM]	AC50 [11] [µM]	AC50 [12] [µM]	AC50 [13]
CCN(CC)C(=O)C1CN2CCc3cc(OC)c(OC)cc3C2CC1OC(C)=O (stereo unspecified) [BENZQUINAMIDE]	> 30	> 30	> 10 µM	> 30	1.03	> 30	> 30	> 30	> 30	> 30	> 30	> 10	> 30 µM
CCCC(C)(COC(N)=O)COC(=O)NC(C)C (stereo unspecified) [CARISOPRODOL]	> 30	> 30	13.3 µM	> 10	> 10	> 10	> 30	> 30	> 30	> 10	> 30	> 30	> 30 µM
N[C@H](Cc1cc(I)c(Oc2cc(I)c(O)c(I)c2)c(I)c1)C(=O)O [DEXTROTHYROXINE]	> 30	> 30	> 10 µM	> 10	> 10	> 10	> 30	> 30	> 30	> 10	0.26	21.9	> 30 µM
CC(=O)OCC(CCn1cnc2cnc(N)nc21)COC(C)=O [FAMCICLOVIR]	> 30	> 30	11.6 µM	> 10	–	> 10	> 30	> 30	> 30	> 10	> 30	> 30	> 30 µM
O=C(O)c1ccccc1Nc1cccc(C(F)(F)F)c1 [FLUFENAMIC ACID]	> 30	> 30	1 µM	> 30	> 10	> 10	> 30	> 30	> 30	> 10	> 30	> 30	> 30 µM
COC1=C(OC)C(=O)C(CCCCCCCCCCO)=C(C)C1=O [IDEBENONE]	> 30	> 30	> 10 µM	> 10	–	> 10	> 30	> 30	> 30	> 10	> 10	31.2	> 10 µM
O=C1CN=C(c2ccccc2)c2cc(Cl)ccc2N1 [NORDAZEPAM]	> 30	> 30	> 10 µM	> 10	> 10	> 10	> 30	> 30	> 30	> 10	12	> 30	> 10 µM
CC1(C)C(C=C(Cl)Cl)C1C(=O)OCc1cccc(Oc2ccccc2)c1 (stereo unspecified) [PERMETHRIN]	> 10	> 10	> 10 µM	> 10	> 10	> 10	–	> 10	> 10	> 10	> 30	> 10	> 30 µM
Cc1ccc(=O)n(-c2ccccc2)c1 [PIRFENIDONE]	> 30	> 30	> 10 µM	> 30	> 30	> 30	> 30	> 30	> 30	> 30	> 30	> 30	> 30 µM
NC(=O)CCC/N=C(\c1ccc(Cl)cc1)c1cc(F)ccc1O [PROGABIDE]	> 10	> 10	> 10 µM	> 10	> 10	> 10	> 30	> 10	> 10	> 10	> 10	> 10	> 30 µM
CC(NCCc1ccc(O)cc1)C(O)c1ccc(O)cc1 (stereo unspecified) [RITODRINE]	> 30	> 30	10 µM and 1.54 µM	> 30	> 30	17	–	> 30	> 30	> 30	> 30	> 30	13 µM and 9.2 µM
C=CC(N)CCC(=O)O (stereo unspecified) [VIGABATRIN]	> 10	> 10	> 10 µM	> 10	> 10	> 10	–	> 10	> 10	> 10	> 30	> 10	> 30 µM
